Here are results for 2 compounds from US11168047B2, “Cocrystal of 2-[(1R,6R)-6-isopropenyl-3-methylcyclohex-2-en-1-yl]-5-pentylbenzene-l,3-diol” (ENANTIA, S.L., priority 2017, dated 2021).

The conditions of series [1]: open vial, 40° C. and 75±5% relative humidity. The method, then:
The aim of the study is to evaluate the stability of cocrystal Form I of the present invention.
Cocrystal Form I of the present invention obtained by the process disclosed in section 1.1.B.1.
Cocrystal Form I (55 mg) is stored in an open vial and exposed to accelerated stability conditions (40° C. and 75±5% relative humidity) according to ICH guidelines (Guidance for Industry Q1A(R2) Stability Testing of New Drug Substances and Products—available on the website http://www.ich.org/products/guidelines/quality/quality-single/article/stability-testing-of-new-drug-substances-and-products.html on Aug. 4, 2017).

For series [2] the following is noted: in humans; cited from earlier work.

With `C=C(C)[C@@H]1CCC(C)=C[C@H]1c1c(O)cc(CCCCC)cc1O.O=C(O)[C@@H]1CCCN1` [cocrystal Form I, cocrystal of 2-[(1R,6R)-6-isopropenyl-3-methylcyclohex-2-en-1-yl]-5-pentylbenzene-1,3-diol with L-proline], in series [1], the “stability (solid form)” value is reported as “remained stable for at least three weeks”.
In the case of `C=C(C)[C@@H]1CCC(C)=C[C@H]1c1c(O)cc(CCCCC)cc1O` [CBD, 2-[(1R,6R)-6-isopropenyl-3-methylcyclohex-2-en-1-yl]-5-pentylbenzene-1,3-diol], the oral bioavailability in series [2] was 6-33%.
